Reference: patent US12077503B2, “Substituted cyclic amides and their use as herbicides” (FMC CORPORATION, priority 2015, dated 2024)

Tests used:
Type in all cases: in vivo
Kochia (Kochia scoparia) [1] = assay: Test A preemergence; details: Bassia scoparia, pre-emergence, 240 h, 0 to 100 scale where 0 is no effect and 100 is complete control, read-out: Kochia plant response rating; for pest or weed control at 31 g/ha: 31 g ai/ha, Preemergence; for pest or weed control at 125 g/ha: 125 g ai/ha, preemergence, visual injury rating, approximately 10 d
Outline: (§1)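 Each rating is a visual injury score from 0 to 100 given about 10 d after treatment, judged against untreated controls kept alongside in the greenhouse. In loam soil–sand blend, seeds got a preemergence directed soil spray, while postemergence plants were 2 to 10 cm tall at spraying.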

[2] = system: pigweed (Amaranthus retroflexus); assay: Test A preemergence; details: Amaranthus retroflexus, pre-emergence, 240 h, 0 to 100 scale where 0 is no effect and 100 is complete control, read-out: Pigweed plant response rating; for pest or weed control at 31 g/ha: 31 g ai/ha, Preemergence; for pest or weed control at 125 g/ha: 125 g ai/ha, preemergence, visual injury rating, approximately 10 d
[3] = system: barnyardgrass (Echinochloa crus-galli); assay: Test A preemergence; details: Echinochloa crus-galli, pre-emergence, 240 h, 0 to 100 scale where 0 is no effect and 100 is complete control, read-out: Barnyardgrass plant response rating; for pest or weed control at 31 g/ha: 31 g ai/ha, Preemergence; for pest or weed control at 125 g/ha: 125 g ai/ha, preemergence, visual injury rating, approximately 10 d
Outline: as §1

[4] = system: ragweed (common ragweed, Ambrosia elatior); assay: Test A preemergence; details: Ambrosia artemisiifolia, pre-emergence, 240 h, 0 to 100 scale where 0 is no effect and 100 is complete control, read-out: Ragweed plant response rating; for pest or weed control at 31 g/ha: 31 g ai/ha, Preemergence; for pest or weed control at 125 g/ha: 125 g ai/ha, preemergence, visual injury rating, approximately 10 d
Outline: as §1

[5] = system: giant foxtail (Setaria faberii); assay: Test A preemergence; details: Setaria faberi, pre-emergence, 240 h, 0 to 100 scale where 0 is no effect and 100 is complete control, read-out: Foxtail, Giant plant response rating; for pest or weed control at 31 g/ha: 31 g ai/ha, Preemergence; for pest or weed control at 125 g/ha: 125 g ai/ha, preemergence, visual injury rating, approximately 10 d
Outline: as §1

[6] = system: ryegrass, Italian (Italian ryegrass, Lolium multiflorum); assay: Test A preemergence; details: Lolium multiflorum, pre-emergence, 240 h, 0 to 100 scale where 0 is no effect and 100 is complete control, read-out: Ryegrass, Italian plant response rating; for pest or weed control at 31 g/ha: 31 g ai/ha, Preemergence; for pest or weed control at 125 g/ha: 125 g ai/ha, preemergence, visual injury rating, approximately 10 d
Outline: as §1

rice (Oryra sativa) = assay: Test B flooded paddy test; details: Oryza sativa, 250 g ai/ha, Flood; 0 to 100 scale where 0 is no effect and 100 is complete control; read-out: Rice plant response rating
Outline: (§2)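 Rating scale 0–100 (visual, vs untreated controls) after a 13–15 d greenhouse period; application to the flood layer, 3 cm above soil and maintained; plants at 2-leaf stage when treated.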

[7] = system: ducksalad (Heteranthera limosa); assay: Test B flooded paddy test; details: Heteranthera limosa, 250 g ai/ha, Flood; 0 to 100 scale where 0 is no effect and 100 is complete control; read-out: Ducksalad plant response rating
Outline: as §2

[8] = system: sedge, umbrella (small-flower umbrella sedge, Cyperus difformis); assay: Test B flooded paddy test; details: Cyperus difformis, 250 g ai/ha, Flood; 0 to 100 scale where 0 is no effect and 100 is complete control; read-out: Sedge, Umbrella plant response rating
Outline: as §2

[9] = system: barnyardgrass (Echinochloa crus-galli); assay: Test B flooded paddy test; details: Echinochloa crus-galli, 250 g ai/ha, Flood; 0 to 100 scale where 0 is no effect and 100 is complete control; read-out: Barnyardgrass plant response rating
Outline: as §2

Kochia (Kochia scoparia) [10] = assay: Test A postemergence; details: Bassia scoparia, post-emergence, 240 h, Postemergence, read-out: Kochia plant response rating (0 to 100 scale); for pest or weed control at 125 g/ha: 125 g ai/ha, visual rating about 10 d after treatment; for pest or weed control at 31 g/ha: 31 g ai/ha, 0 is no effect, 100 is complete control
Outline: as §1

[11] = system: pigweed (Amaranthus retroflexus); assay: Test A postemergence; details: Amaranthus retroflexus, post-emergence, 240 h, Postemergence, read-out: Pigweed plant response rating (0 to 100 scale); for pest or weed control at 125 g/ha: 125 g ai/ha, visual rating about 10 d after treatment; for pest or weed control at 31 g/ha: 31 g ai/ha, 0 is no effect, 100 is complete control
Outline: as §1

[12] = system: Galium (catchweed bedstraw, Galium aparine); assay: Test A postemergence; details: Galium, post-emergence, 240 h, Postemergence, read-out: Galium plant response rating (0 to 100 scale); for pest or weed control at 125 g/ha: 125 g ai/ha, visual rating about 10 d after treatment; for pest or weed control at 31 g/ha: 31 g ai/ha, 0 is no effect, 100 is complete control
Outline: as §1

[13] = system: barnyardgrass (Echinochloa crus-galli); assay: Test A postemergence; details: Echinochloa crus-galli, post-emergence, 240 h, Postemergence; for pest or weed control at 125 g/ha: 125 g ai/ha, visual rating about 10 d after treatment, read-out: Barnyardgrass plant response rating (0 to 100 scale, 0 no effect, 100 complete control); for pest or weed control at 31 g/ha: 31 g ai/ha, 0 is no effect, 100 is complete control, read-out: Barnyardgrass plant response rating (0 to 100 scale)
Outline: as §1

[14] = system: wheat (Triticum aestivum); assay: Test A postemergence; details: Triticum aestivum, post-emergence, 240 h, Postemergence, read-out: Wheat plant response rating (0 to 100 scale); for plant injury at 125 g/ha: 125 g ai/ha, visual rating about 10 d after treatment; for plant injury at 31 g/ha: 31 g ai/ha, 0 is no effect, 100 is complete control
Outline: as §1

[15] = system: ragweed (common ragweed, Ambrosia elatior); assay: Test A postemergence; details: Ambrosia artemisiifolia, post-emergence, 240 h, Postemergence, read-out: Ragweed plant response rating (0 to 100 scale); for pest or weed control at 125 g/ha: 125 g ai/ha, visual rating about 10 d after treatment; for pest or weed control at 31 g/ha: 31 g ai/ha, 0 is no effect, 100 is complete control
Outline: as §1

[16] = system: giant foxtail (Setaria faberii); assay: Test A postemergence; details: Setaria faberi, post-emergence, 240 h, Postemergence, read-out: Foxtail, Giant plant response rating (0 to 100 scale); for pest or weed control at 125 g/ha: 125 g ai/ha, visual rating about 10 d after treatment; for pest or weed control at 31 g/ha: 31 g ai/ha, 0 is no effect, 100 is complete control
Outline: as §1

[17] = system: blackgrass (Alopecurus myosuroides); assay: Test A postemergence; details: Alopecurus myosuroides, post-emergence, 240 h, Postemergence, read-out: Blackgrass plant response rating (0 to 100 scale); for pest or weed control at 125 g/ha: 125 g ai/ha, visual rating about 10 d after treatment; for pest or weed control at 31 g/ha: 31 g ai/ha, 0 is no effect, 100 is complete control
Outline: as §1

[18] = system: ryegrass, Italian (Italian ryegrass, Lolium multiflorum); assay: Test A postemergence; details: Lolium multiflorum, post-emergence, 240 h, Postemergence, read-out: Ryegrass, Italian plant response rating (0 to 100 scale); for pest or weed control at 125 g/ha: 125 g ai/ha, visual rating about 10 d after treatment; for pest or weed control at 31 g/ha: 31 g ai/ha, 0 is no effect, 100 is complete control
Outline: as §1

corn (Zea mays) = assay: Test A postemergence; details: Zea mays, post-emergence, 240 h, Postemergence, read-out: Corn plant response rating (0 to 100 scale); for plant injury at 125 g/ha: 125 g ai/ha, visual rating about 10 d after treatment; for plant injury at 31 g/ha: 31 g ai/ha, 0 is no effect, 100 is complete control
Outline: as §1

Compound | pest or weed control at 31 g/ha (Kochia (Kochia scoparia) [1]) | pest or weed control at 125 g/ha (Kochia (Kochia scoparia) [1]) | pest or weed control at 31 g/ha [2] | pest or weed control at 125 g/ha [2] | pest or weed control at 31 g/ha [3] | pest or weed control at 125 g/ha [3] | pest or weed control at 31 g/ha [4] | pest or weed control at 125 g/ha [4] | pest or weed control at 31 g/ha [5] | pest or weed control at 125 g/ha [5] | pest or weed control at 31 g/ha [6] | pest or weed control at 125 g/ha [6] | pest or weed control at 250 g/ha (rice (Oryra sativa)) | pest or weed control at 250 g/ha [7] | pest or weed control at 250 g/ha [8] | pest or weed control at 250 g/ha [9] | pest or weed control at 125 g/ha (Kochia (Kochia scoparia) [10]) | pest or weed control at 31 g/ha (Kochia (Kochia scoparia) [10]) | pest or weed control at 125 g/ha [11] | pest or weed control at 31 g/ha [11] | also measured
CN1C[C@H](c2ccc3c(c2)C(F)(F)C(F)(F)O3)[C@@H](C(=O)Nc2cccc(F)c2F)C1=O [Compound 1271] | 30% | 40% | 0% | 50% | 90% | 90% | 0% | 20% | 80% | 90% | 70% | 90% | 0% | 90% | 0% | 40% | 40% | 20% | 30% | 20% | pest or weed control at 125 g/ha [12]: 60%; pest or weed control at 31 g/ha [12]: 60%; pest or weed control at 125 g/ha [13]: 60%; pest or weed control at 31 g/ha [13]: 40%; plant injury at 125 g/ha [14]: 60%; plant injury at 31 g/ha [14]: 20%; pest or weed control at 125 g/ha [15]: 0%; pest or weed control at 31 g/ha [15]: 0%; pest or weed control at 125 g/ha [16]: 80%; pest or weed control at 31 g/ha [16]: 20%; pest or weed control at 125 g/ha [17]: 30%; pest or weed control at 31 g/ha [17]: 0%; pest or weed control at 125 g/ha [18]: 30%; pest or weed control at 31 g/ha [18]: 0%; plant injury at 125 g/ha (corn (Zea mays)): 40%; plant injury at 31 g/ha (corn (Zea mays)): 30%
O=C1NC[C@H](c2cc(Cl)cc(Cl)c2)[C@H]1C(=O)Nc1cccc(F)c1F [Compound 1273] | 0% | 50% | 0% | 20% | 60% | 80% | 0% | 0% | 80% | 90% | 0% | 40% | 0% | 90% | 0% | 30% | 60% | 0% | 40% | 0% | pest or weed control at 125 g/ha [12]: 50%; pest or weed control at 31 g/ha [12]: 40%; pest or weed control at 125 g/ha [13]: 60%; pest or weed control at 31 g/ha [13]: 50%; plant injury at 125 g/ha [14]: 30%; plant injury at 31 g/ha [14]: 0%; pest or weed control at 125 g/ha [15]: 0%; pest or weed control at 31 g/ha [15]: 0%; pest or weed control at 125 g/ha [16]: 80%; pest or weed control at 31 g/ha [16]: 60%; pest or weed control at 125 g/ha [17]: 20%; pest or weed control at 31 g/ha [17]: 0%; pest or weed control at 125 g/ha [18]: 40%; pest or weed control at 31 g/ha [18]: 0%; plant injury at 125 g/ha (corn (Zea mays)): 60%; plant injury at 31 g/ha (corn (Zea mays)): 0%
